Converted amounts (≈) assume the structure as drawn. Read-outs that look alike come from different tables or passages of the source.
Legend:
[1] = test system: erythroid hematopoietic progenitor cells derived from human bone marrow; experiment: erythroid colony formation of hematopoietic progenitor cells; type: cell-based; details: 336 h, human bone marrow progenitor cells
Protocol: (§1) Compound 1 was evaluated for its effects on proliferation of erythroid and myeloid hematopoietic progenitor cells derived from human bone marrow at […] Technologies Inc. (Vancouver, BC, Canada).
(§2) Cells were thawed rapidly at 37° C. into DNAse I and then diluted in 10 mL of Iscove's Modified Dulbecco's medium containing 2% fetal bovine serum (IMDM+2% FBS) and washed by centrifugation (1200 rpm for 10 minutes at room temperature). The supernatant was discarded and the cell pellet resuspended in a known volume of IMDM+2% FBS. A nucleated cell count (3% glacial acetic acid) and viability assessment (trypan blue exclusive test) were performed.
(§3) Compound 1 and positive control (panobinostat) were diluted in DMSO and tested at concentrations ranging from 0.002 μM to 5 μM in final media. These dilutions provided the appropriate final test concentrations required for the test and control articles ([…], and 0.002 μM).
(§4) Test and control articles were incubated with human bone marrow hematopoietic progenitor cells. After 14 days, cell colonies were assessed.
(§5) To calculate the concentration of 50% and 90% inhibition of colony growth (IC50 and IC90) for each test article, a dose response curve was generated plotting the log of the test article concentration versus the percentage of control colony growth using GraphPad Prism. […] The IC50 and IC90 values for both test and control articles were derived from an interpolation of the curve fit. In cases where the IC50/90 value reported by GraphPad Prism is a value beyond the range of concentrations that were actually tested, if this value is more than 4 times the highest concentration tested, or where GraphPad Prism cannot calculate an IC50/90 value, notations of >5 μM (for test article compound 1) are used.

[2] = test system: myeloid hematopoietic progenitor cells derived from human bone marrow; experiment: myeloid colony formation of hematopoietic progenitor cells; type: cell-based; details: 336 h, human bone marrow progenitor cells
Protocol: as §1, §2, §3, §4, §5

IC50 ([1]; 14 days, read-out: IC50, inhibition of erythroid colony formation): < 10 nM | IC50 ([2]; 14 days, read-out: IC50, inhibition of myeloid colony formation): < 10 nM
SMILES: Cc1[nH]c2ccccc2c1CCNCc1ccc(/C=C/C(=O)NO)cc1 [Panobinostat, reference compound]
IC90 ([1]; colony growth after 14 days): 7.5 ng/mL (≈ 0.0215 µM) | IC50 ([1]; colony growth after 14 days, read-out: Erythroid IC50): 6.4 ng/mL | IC90 ([2]; colony growth after 14 days): 8.1 ng/mL (≈ 0.0232 µM) | IC50 ([2]; colony growth after 14 days, read-out: Myeloid IC50): 7.4 ng/mL

From patent US20250025451A1, “TREATMENT OF CANCER WITH KDM4 INHIBITORS” (Celgene Corporation, priority 2021, published 2025)
